Results reported in patent publication US20130196000A1, “COMBINATION THERAPY INCLUDING ISOPHO[…], ANALOGS, OR SALTS THEREOF” (ZIOPHARM ONCOLOGY, INC., priority 2012, published 2013).

Assay: Multicenter phase Ib open-label dose-escalation study of IPM-tris plus carboplatin/etoposide (PaCE): safety, DLT and MTD
Assay type: in vivo, human
Method: A multicenter phase I, open-label, dose-escalation study assessing the safety and efficacy of IPM-tris in combination with carboplatin (C) and etoposide (E) (PaCE regimen) in SCLC and in other cancers in which C+E is considered appropriate was conducted. Tumor responses were assessed by RECIST 1.1 and relevant tumor markers.
To be eligible, each subject met each of the following criteria: (i) age >18 years; (ii) subject with documentation of a malignancy scheduled to receive etoposide and carboplatin therapy (including, but not limited to testicular cancer, thymoma, ovarian cancer, osteosarcoma, non-small cell lung cancer, and small cell lung cancer); (iii) ECOG Performance Status of 0 or 1; (iv) adequate bone marrow, liver, and renal function, as assessed by the following laboratory requirements conducted within 14 days prior to dosing; and (v) subjects for whom there is no curative standard therapy.
IPM tris(hydroxymethyl)methylammonium salt (IPM-tris) was given by intravenous (IV) infusion over approximately 30 minutes on days 1, 2, and 3 of each 21 day cycle. Each IPM-tris infusion to a subject was completed within 1 hour (and not more than 90 minutes) of dose preparation in the IV bag. Etoposide was given by IV infusion over approximately 60 minutes on days 1, 2, and 3 of each 21 day cycle. Carboplatin was given by IV infusion over approximately 30 minutes on day 1 of each 21 day cycle.
Each vial of IPM-tris was reconstituted with 14.6% sodium chloride for Injection, to a final concentration of 50.0 mg per mL. If the 14.6% sodium chloride diluent was not available, sites used 5.0%, 5.7%, 8.5%, or 0.9% sodium chloride for injection as the reconstitution diluent according to the same reconstitution instructions. Other standard sodium chloride solutions commercially available in other countries can be used to reconstituted IPM-tris. The IV infusion of IPM-tris was completed within 2.5 hours of reconstitution in the vial.
The doses of IPM-tris, etoposide, and carboplatin for each subject were calculated by the pharmacist based on the dose level and the subject's body surface area (BSA) on the first day of each cycle. BSA was calculated using their Institutional guidelines for calculating BSA or, the calculation for BSA by the Mosteller formula was used (note: SQRT=square root): […]
The maximum tolerable dose (MTD) of IPM-tris when administered in combination with etoposide and carboplatin at fixed doses (90 mg/m^2 and AUC 4, respectively) was determined An additional dose cohort was also evaluated using an escalated dose level of etoposide (100 mg/m^2) in combination with the IPM-tris MTD and carboplatin (AUC 4). Once the recommended doses were determined, this combination regimen was further studied in subjects with small cell lung cancer.

In the case of `NC(CO)(CO)CO.O=P(O)(NCCCl)NCCCl` [IPM-tris, IPM tris(hydroxymethyl)methylammonium salt], the “patients with dose limiting toxicity (neutropenic fever)” value (at 150 mg/m^2 of IPM-tris) is reported as “one”, the “maximum tolerated dose of IPM-tris” value (in combination with etoposide 90 mg/m^2 and carboplatin AUC 4 (Cohort 2), IV days 1, 2, 3 of 21 day cycle) is reported as “**Based on dose escalation cohorts completed prior to Amendment 6, the maximum tolerated dose of IPM-tris was determined to be 130 mg/m^2 when administered in combination with etoposide 90 mg/m^2 and carboplatin AUC 4 (Cohort 2)” and the “maximum tolerated dose of IPM-tris” value (in combination with etoposide 100 mg/m^2 and carboplatin AUC 4) is reported as 130 mg/m^2. The “IPM-tris dosage found to result in DLT” value (in combination with etoposide and carboplatin) was 150 mg/m^2/day.
